{"source": "paper PMC3964211", "about": "“Pharmacokinetic modeling optimizes inhibition of the ‘undruggable’ EWS-FLI1 transcription factor in Ewing Sarcoma” (Oncotarget, 2013)", "key": {"[1]": {"system": "A4573 cells", "assay": "Time point re-plating (colony formation) assay", "assay_type": "cell-based", "settings": "for Colony counts: then replated without YK-4-279", "description": "We determined the replating efficiency of A4573 cells after 12–84 hours of treatment with 3 ¼M YK-4-279. Cells were treated for the indicated exposure time then replated without YK-4-279 to assay for colony formation (Figure 1A).\nA4573 cells were plated at a density of 2×10^5 cells/dish in 60 mm dishes and incubated for 8 hours before treatment start with 3 ¼M racemic YK-4-279. Cells were removed with trypsin at their respective treatment time, cell suspensions were centrifuged, and cells were resuspended in 500 ¼l of media. One hundred microliters of cell suspension was plated in each 10 cm dish (triplicates) with 12 ml of media. Dishes were incubated for 1 week before staining with crystal violet stain. Colonies were counted using Nikon NIS Elements BR Software."}, "[2]": {"assay": "Pharmacokinetics in C57BL/6 mice, IV or IP 75 mg/kg", "assay_type": "in vivo", "settings": "IV 75 mg/kg", "description": "(§1) The poor oral bioavailability determined from the rat study caused us to focus on IV delivery. Since mice often metabolize compounds differently from rats, we also evaluated the intraperitoneal (IP) PK profle and compared it to the IV profile. We determined pharmacokinetics in C57BL/6 mice given IV (Figure 2A) or IP (Figure 2B) administrations of 75 mg/kg YK-4-279, which was the maximal solubility of compound in 20% Cremophor EL. […] In addition, drug levels in tumor were measured using SCID/bg mice with orthotopic xenografts that were treated with daily IV injections of (S)-YK-4-279 for 6 days. […]\nThe plasma and tumor sample analysis was performed using calibration standards and Quality Control (QC) samples prepared in control rat or mouse plasma and tumor tissues. […] The transitions monitored were 366 amu to 135 amu for YK-4-279 and 369 amu to 138 amu for the YK-4-279-d3 internal standard. YK-4-279 concentrations were calculated using peak area response ratios and a regression equation constructed from the concentrations and peak area response ratios of the calibration standards. The lower limit of quantitation was 5.0 ng/mL in plasma and […] in tumor tissue. The concentration-time profiles were evaluated by compartmental modeling and non-compartmental analysis using WinNonlin (Pharsight Corporation, Mountain View, CA). […]"}, "[3]": {"assay": "Plasma concentration after IP injection of various formulations in C57BL/6 mice", "assay_type": "in vivo", "settings": "C57BL/6 mouse plasma, 20 minutes after IP 200 mg/kg racemic mixture, 10% w/v sucrose, 1% v/v Tween 80, 5% v/v ethanol in DI water, mean ±SD, five mice", "description": "The poor oral bioavailability determined from the rat study caused us to focus on IV delivery. Since mice often metabolize compounds differently from rats, we also evaluated the intraperitoneal (IP) PK profle and compared it to the IV profile. We determined pharmacokinetics in C57BL/6 mice given IV (Figure 2A) or IP (Figure 2B) administrations of 75 mg/kg YK-4-279, which was the maximal solubility of compound in 20% Cremophor EL. […] In addition, drug levels in tumor were measured using SCID/bg mice with orthotopic xenografts that were treated with daily IV injections of (S)-YK-4-279 for 6 days. […] In order to determine (S)-YK-4-279 levels in the tumors, the mice were euthanized 2 hours following the fnal IV bolus dose for harvest of both tumors and plasma. […] Since the IV treatment was ineffective at reducing tumor growth, despite measurable levels in the tumor tissue, models of IP administration were used to design follow-up effcacy studies.\nThe plasma and tumor sample analysis was performed using calibration standards and Quality Control (QC) samples prepared in control rat or mouse plasma and tumor tissues. Plasma and tumor calibration standards were prepared from stock solutions of YK-4-279. The calibration standards, blanks, QC samples, and study samples were then processed by solid-liquid extraction (SLE) followed by analysis using liquid chromatography with mass spectrometry (LC-MS). The LC-MS systems used for the analysis of YK-4-279 was composed of Shimadzo prominence pump and auto-sampler (Kyoto, Japan), a Sciex API 5000 MS (Toronto, Ontario), with turbo ion spary in the positive ion mode. The samples for the analysis of total YK-4-279 were injected into a 50 × 2 mm Gemini- NX, 5 ¼m column (Phenomenex, Torrance, CA). The samples for the analysis of the specific enantiomers of YK-4-279 were injected into a 150 × 2 mm Lux Cellulose-2, 3 ¼m Phenomenex column. The transitions monitored were 366 amu to 135 amu for YK-4-279 and 369 amu to 138 amu for the YK-4-279-d3 internal standard. YK-4-279 concentrations were calculated using peak area response ratios and a regression equation constructed from the concentrations and peak area response ratios of the calibration standards. The lower limit of quantitation was 5.0 ng/mL in plasma and […] in tumor tissue. The concentration-time profiles were evaluated by compartmental modeling and non-compartmental analysis using WinNonlin (Pharsight Corporation, Mountain View, CA). The PK parameters obtained from the compartmental modeling were used in simulations to identify optimal dose level and dosing schedule for maintaining plasma concentration of (S)-YK-4-279 above 3 ¼M."}, "[4]": {"system": "A4573 xenografts", "assay": "IV efficacy experiment, A4573 xenografts, with plasma and tumor drug levels", "assay_type": "in vivo, SCID/bg mice", "description": "as §1\nTwenty Fox Chase SCID beige mice per sex were inoculated with 2 million of A4573 cells. Tumor volume was monitored every day by caliper. […]\nThe plasma and tumor sample analysis was performed using calibration standards and Quality Control (QC) samples prepared in control rat or mouse plasma and tumor tissues. […] The transitions monitored were 366 amu to 135 amu for YK-4-279 and 369 amu to 138 amu for the YK-4-279-d3 internal standard. YK-4-279 concentrations were calculated using peak area response ratios and a regression equation constructed from the concentrations and peak area response ratios of the calibration standards. The lower limit of quantitation was 5.0 ng/mL in plasma and 5.0 ¼g/g in tumor tissue. […]"}, "[5]": {"settings": "A4573 cells, 3 ¼M YK-4-279, 84 hours exposure"}}, "data": [{"smiles": "COc1ccc(C(=O)CC2(O)C(=O)Nc3c(Cl)ccc(Cl)c32)cc1", "note": "(stereo not shown) [YK-4-279]", "values": [{"measurement": "Decrease in colony growth between the 24 and 36 hour time points", "setting": "[1]; A4573 cells, 3 ¼M YK-4-279", "result": 3, "unit": "fold"}, {"measurement": "Colony counts", "setting": "[1]; A4573 cells, 3 ¼M YK-4-279, 24 hour exposure", "result": "2229±101", "unit": "colonies"}, {"measurement": "Colony counts", "setting": "[1]; A4573 cells, 3 ¼M YK-4-279, 72 hours exposure", "result": 53, "unit": "colonies"}, {"measurement": "Drop in colonies from the 24 hour time point", "setting": "[1]; [5]", "result": 98.9, "unit": "%"}, {"measurement": "Colony counts", "setting": "[1]; [5]", "result": "25±12", "unit": "colonies"}, {"measurement": "Growth of surviving colonies replated in continuous presence of compound", "setting": "[1]; colonies from 72 and 84 hours harvested and replated in continuous presence of 3 ¼M YK-4-279", "result": "no growth was observed"}, {"measurement": "Time that peak levels would exceed 3 ¼M", "setting": "[2]", "result": "~ 1 hour"}, {"measurement": "(S)-YK-4-279 Concentrations", "setting": "[3]; 0.25% lecithin, 0% DMSO, 0% soybean oil", "result": "10.5 ± 8.6 ¼M"}, {"measurement": "(S)-YK-4-279 Concentrations", "setting": "[3]; 1.2% lecithin, 0% DMSO, 10% soybean oil", "result": "20.9 ± 22.8 ¼M"}, {"measurement": "(S)-YK-4-279 Concentrations", "setting": "[3]; 1.2% lecithin, 10% DMSO, 0% soybean oil", "result": "35.8 ± 45.0 ¼M"}, {"measurement": "(S)-YK-4-279 Concentrations", "setting": "[3]; 1.2% lecithin, 10% DMSO, 10% soybean oil", "result": "39.1 ± 54.6 ¼M"}, {"measurement": "(S)-YK-4-279 Concentrations", "setting": "[3]; 2.5% lecithin, 0% DMSO, 10% soybean oil", "result": "19.8 ± 20.5 ¼M"}, {"measurement": "(S)-YK-4-279 Concentrations", "setting": "[3]; 2.5% lecithin, 10% DMSO, 0% soybean oil", "result": "59.7 ± 58.6 ¼M"}, {"measurement": "(S)-YK-4-279 Concentrations", "setting": "[3]; 2.5% lecithin, 10% DMSO, 10% soybean oil", "result": "21.3 ± 11.3 ¼M"}, {"measurement": "Effect on xenograft tumor growth", "setting": "[4]; A4573 xenografts in SCID/bg mice, 75 mg/kg IV QD", "result": "tumors did not regress nor reduce their growth rate"}, {"measurement": "Plasma levels 2 hours following the final IV bolus dose", "setting": "[4]; SCID/bg mice with A4573 xenografts, repeated IV injections", "result": "1.5–18 ¼M"}]}]}
